Literature values in patent publication US6949538B2, “Compounds, compositions, and methods” (Cytokinetics, Inc., priority 2002, dated 2005).

Test system: A549 cells
Conditions: data provided by National Cancer Institute, Developmental Therapeutic Program

Row | Structure (SMILES) | GI50
1 | O=c1[nH]cc(F)c(=O)[nH]1 [5-fluorouracil] | 1 µM
2 | COc1cccc2c1C(=O)c1c(O)c3c(c(O)c1C2=O)C[C@@](O)(C(=O)CO)C[C@@H]3O[C@H]1C[C@H](N)[C@H](O)[C@H](C)O1 [doxorubicin] | 0.063 µM
3 | NC(=O)NO [hydroxyurea] | 500 µM
4 | CC(=O)O[C@H]1C(=O)[C@@]2(C)[C@H]([C@H](OC(=O)c3ccccc3)[C@]3(O)C[C@H](OC(=O)[C@H](O)[C@@H](NC(=O)c4ccccc4)c4ccccc4)C(C)=C1C3(C)C)[C@]1(OC(C)=O)CO[C@@H]1C[C@@H]2O [paclitaxel] | 0.004 µM
